Read-outs that look alike come from different tables or passages of the source.
Assays:
human H1 receptor = human H1 receptor (Homo sapiens, UniProt P35367); assay: hH1 GTPgS: inhibition of agonist-induced stimulation of radioactive GTP-gamma-S binding at recombinant receptors; format: biochemical
Experimental: (§1) Activity at the human H1 receptor is determined by the inhibition of agonist-induced stimulation of radioactive GTP-gamma-S binding at recombinant receptors. […] Affinity for the human H4 receptor is determined by binding competition.

human H4 receptor = human H4 receptor (Homo sapiens, UniProt Q9H3N8); assay: hH4 binding competition
Experimental: as §1

hERG channel = hERG channel (Homo sapiens, UniProt Q12809); assay: hERG competition binding
Description: Compounds that are antagonists or inverse agonists at the human H1 receptor are often found to bind to the hERG channel, giving rise to arrhythmia possibly leading to sudden cardiac arrest. This led to the withdrawal of several medicines from the clinics. This parameter has thus been evaluated for the compounds of the present application.
The discriminative recognition of hERG channel by the eutomer versus the distomer is shown in the table below where the reported values are the inhibition constant determined by competition binding: […]

[1] = Bioavailability / lung exposure after per os administration to mice; format: in vivo
[2] = allergic conjunctivitis; Nakano Y et al. Eur J Pharmacol 2009; cited from earlier work
[3] = Brain exposure: exposure over 8 hours in brain and plasma after per os administration to mice; format: in vivo; conditions: for Kp: mouse, brain/plasma, oral, examples of the present invention, read-out: ratio of the exposure in brain over the one in plasma
Experimental: Compounds that are acting as […] or inverse agonists on the histamine H1 receptor should not enter the brain. This would lead to unwanted side effects such as sedation and weight gain. The efficiency for entering into the brain may be assessed by administrating the compound per os to mice and measuring the exposure over 8 hours in the brain and in the plasma. The result may be expressed by the ratio of the exposure in brain over the one in plasma.

[4] = eutomers of the invention and their distomers
[5] = comparative compounds of WO 2012/041860, eutomer and distomer

hERG channel, sequence (Q12809 whole entry): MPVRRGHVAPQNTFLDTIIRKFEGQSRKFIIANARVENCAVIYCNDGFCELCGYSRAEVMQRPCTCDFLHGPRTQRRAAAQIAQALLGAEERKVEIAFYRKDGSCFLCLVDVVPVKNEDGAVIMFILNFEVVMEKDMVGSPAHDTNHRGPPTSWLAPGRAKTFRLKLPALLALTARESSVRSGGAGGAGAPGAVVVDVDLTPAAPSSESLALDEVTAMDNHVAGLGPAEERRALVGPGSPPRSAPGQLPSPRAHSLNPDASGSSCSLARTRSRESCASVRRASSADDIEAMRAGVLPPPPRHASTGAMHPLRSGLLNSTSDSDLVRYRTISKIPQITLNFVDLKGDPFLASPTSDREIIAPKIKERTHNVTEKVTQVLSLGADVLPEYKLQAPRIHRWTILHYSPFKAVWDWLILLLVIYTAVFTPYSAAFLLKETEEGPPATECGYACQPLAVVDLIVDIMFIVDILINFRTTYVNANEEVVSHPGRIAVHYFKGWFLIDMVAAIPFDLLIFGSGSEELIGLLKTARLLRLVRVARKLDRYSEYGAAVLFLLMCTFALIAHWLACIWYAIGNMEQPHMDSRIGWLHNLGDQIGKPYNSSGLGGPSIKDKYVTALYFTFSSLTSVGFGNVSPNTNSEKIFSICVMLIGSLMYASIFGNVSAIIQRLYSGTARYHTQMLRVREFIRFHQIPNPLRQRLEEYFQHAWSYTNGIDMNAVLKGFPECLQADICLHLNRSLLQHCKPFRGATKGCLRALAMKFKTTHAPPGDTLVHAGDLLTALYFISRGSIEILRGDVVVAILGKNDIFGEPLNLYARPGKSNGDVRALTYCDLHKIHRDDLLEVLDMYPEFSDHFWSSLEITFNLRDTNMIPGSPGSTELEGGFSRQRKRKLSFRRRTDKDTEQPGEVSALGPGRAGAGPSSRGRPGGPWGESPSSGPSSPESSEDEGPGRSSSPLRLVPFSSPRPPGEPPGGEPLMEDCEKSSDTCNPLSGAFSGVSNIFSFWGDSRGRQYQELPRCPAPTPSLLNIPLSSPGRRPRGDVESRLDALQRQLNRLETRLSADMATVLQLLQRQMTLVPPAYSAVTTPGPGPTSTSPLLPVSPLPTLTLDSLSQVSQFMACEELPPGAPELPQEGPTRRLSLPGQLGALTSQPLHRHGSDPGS
human H1 receptor, sequence (P35367 whole entry): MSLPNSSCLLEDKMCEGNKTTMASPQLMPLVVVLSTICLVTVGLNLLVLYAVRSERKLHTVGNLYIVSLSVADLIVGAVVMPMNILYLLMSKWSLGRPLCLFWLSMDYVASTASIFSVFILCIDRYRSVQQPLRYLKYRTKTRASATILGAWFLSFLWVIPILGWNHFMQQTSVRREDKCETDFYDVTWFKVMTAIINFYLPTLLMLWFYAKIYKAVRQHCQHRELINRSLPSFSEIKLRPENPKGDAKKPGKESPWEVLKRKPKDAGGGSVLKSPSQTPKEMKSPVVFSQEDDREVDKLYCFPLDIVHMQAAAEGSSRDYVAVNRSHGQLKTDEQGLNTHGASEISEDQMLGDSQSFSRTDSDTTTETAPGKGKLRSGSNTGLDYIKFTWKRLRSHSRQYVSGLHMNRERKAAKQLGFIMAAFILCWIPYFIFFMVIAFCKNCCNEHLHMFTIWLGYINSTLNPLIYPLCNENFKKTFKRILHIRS

Compound	Kb (human H1 receptor) [nM]	Ki (human H4 receptor) [nM]	Ki (hERG channel; [4]) [nM]	Ki (hERG channel; [5]) [nM]	also measured
C[C@@H]1CN([C@H]2CC[C@](C#N)(c3ccc(F)cc3)CC2)CC[C@]1(C(=O)O)c1ccccc1 [levocabastine]	–	–	–	–	eye scratching behavior [2]: inhibited eye scratching behavior
Cc1ccc(C(OC2CCN(C)CC2)c2nc3ccccc3[nH]2)c(F)c1 (stereo not shown) [drawing 24 Distomer, reference compound]	–	–	–	363	–
(S)-2-[(1H-benzimidazol-2-yl)(1-methylpiperidin-4-yloxy)methyl]-6-fluorophenol [Example 1]	–	–	–	–	ratio of the exposure in brain over the one in plasma ([3]; 10 mg/kg, comparative compounds, example numbers of WO2012/041860): 13
CN1CCC(OC(c2nc3ccccc3[nH]2)c2ccc(F)c(F)c2O)CC1 (stereo not shown) [drawing 26 Eutomer, reference compound]	–	–	–	18000	–
CN1CCC(OC(c2nc3ccccc3[nH]2)c2ccc(F)c(F)c2O)CC1 (stereo not shown) [drawing 26 Distomer, reference compound]	–	–	–	32000	–
Cc1ccc(C(OC2CCN(C)CC2)c2nc3ccc(F)cc3[nH]2)c(O)c1F (single isomer, unassigned) [drawing 27 Distomer, reference compound]	–	–	–	799	–
Cc1ccc(C(OC2CCN(C)CC2)c2nc3ccc(F)cc3[nH]2)c(O)c1F (single isomer, unassigned) [drawing 27 Eutomer, reference compound]	–	–	–	220	–
CN1CCC(OC(c2nc3ccccc3[nH]2)c2ccc(Cl)c(F)c2O)CC1 (stereo not shown) [drawing 28 Eutomer, reference compound]	–	–	–	6680	–
CN1CCC(OC(c2nc3ccccc3[nH]2)c2cccc(F)c2O)CC1 (single isomer, unassigned) [Example 1 Distomer A]	225	788	4210	–	–
CN1CCC(OC(c2nc3ccccc3[nH]2)c2cccc(F)c2O)CC1 (single isomer, unassigned) [Example 1]	–	–	–	–	Kp ([3]; 10 mg/kg): 0.2; lung AUC ([1]; 10 mg/kg): 20486 ng·h/g
Cc1ccc(C(OC2CCN(C)CC2)c2nc3ccccc3[nH]2)c(O)c1F (stereo not shown) [drawing 25 Distomer, reference compound]	–	–	–	5700	–
Cc1ccc(C(OC2CCN(C)CC2)c2nc3ccccc3[nH]2)c(O)c1F (stereo not shown) [drawing 25 Eutomer, reference compound]	–	–	–	3100	–
CN1CCC(O[C@H](c2nc3ccccc3[nH]2)c2cccc(F)c2O)CC1 [Example 1, (S)-2-[(1H-benzimidazol-2-yl)(1-methylpiperidin-4-yloxy)methyl]-6-fluorophenol]	2.18	5.02	11400	–	–
CN1CCC(OC(c2nc3ccccc3[nH]2)c2ccc(Cl)c(F)c2O)CC1 (stereo not shown) [drawing 28 Distomer, reference compound]	–	–	–	8430	–
Cc1ccc(C(OC2CCN(C)CC2)c2nc3ccccc3[nH]2)c(F)c1 (stereo not shown) [drawing 24 Eutomer, reference compound]	–	–	–	503	–

Now from value to compound, other results behind:

Kb (human H1 receptor) [nM]	Ki (human H4 receptor) [nM]	Compound	Ki (hERG channel; [4]) [nM]	Ki (hERG channel; [5]) [nM]	also measured
1.65	0.915	CN1CCC(OC(c2nc3cc(F)ccc3[nH]2)c2ccccc2O)CC1 (single isomer, unassigned) [Example 5]	3210	–	lung AUC ([1]; 1 mg/kg): 1264 ng·h/g
1.43	0.61	CN1CCC(OC(c2nc3ccc(Cl)c(F)c3[nH]2)c2ccccc2O)CC1 (single isomer, unassigned) [Example 3]	2580	–	Kp ([3]; 1 mg/kg): 0; lung AUC ([1]; 1 mg/kg): 10037 ng·h/g
156	42	CN1CCC(OC(c2nc3ccc(Cl)c(F)c3[nH]2)c2ccccc2O)CC1 (single isomer, unassigned) [Example 3 Distomer A]	783	–	–
1.87	0.727	Cc1c(Cl)ccc2nc(C(OC3CCN(C)CC3)c3ccccc3O)[nH]c12 (single isomer, unassigned) [Example 7]	3010	–	lung AUC ([1]; 1 mg/kg): 1169 ng·h/g
0.165	2.87	Cc1cccc2nc(C(OC3CCN(C)CC3)c3ccccc3O)[nH]c12 (single isomer, unassigned) [Example 4]	21300	–	Kp ([3]; 1 mg/kg): 0.3; lung AUC ([1]; 1 mg/kg): 1144 ng·h/g
133	491	Cc1cccc2nc(C(OC3CCN(C)CC3)c3ccccc3O)[nH]c12 (single isomer, unassigned) [Example 4 Distomer A]	2780	–	–
598	474	CN1CCC(OC(c2nc3cccc(Cl)c3[nH]2)c2ccccc2O)CC1 (single isomer, unassigned) [Example 6 Distomer A]	1490	–	–
132	73.1	Cc1c(Cl)ccc2nc(C(OC3CCN(C)CC3)c3ccccc3O)[nH]c12 (single isomer, unassigned) [Example 7 Distomer A]	586	–	–
97.5	249	CN1CCC(OC(c2nc3cc(F)ccc3[nH]2)c2ccccc2O)CC1 (single isomer, unassigned) [Example 5 Distomer A]	646	–	–
1.25	3.42	CN1CCC(OC(c2nc3cccc(Cl)c3[nH]2)c2ccccc2O)CC1 (single isomer, unassigned) [Example 6]	12500	–	Kp ([3]; 1 mg/kg): 0; lung AUC ([1]; 1 mg/kg): 6316 ng·h/g

From patent publication US12134608B2, “Benzimidazole derivatives as dual histamine H1 and histamine H4 receptor ligands” (BIOPROJET, priority 2017, dated 2024)
